The text below walks through data of patent US20240400521A1, “QUINAZOLINE COMPOUND, COMPOSITION, AND APPLICATION THEREOF” (BEIJING SCITECH-MQ PHARMACEUTICALS LIMITED, priority 2021, published 2024).

A value given as a limit tells only on which side of the number the result lay.

The target in one assay is T1, EGFR^WT kinase (Homo sapiens, UniProt P00533).
T1 construct: purchased Carna Biosciences 08-115
Nature of the assay: EGFR^WT kinase assay (ULight peptide / Eu-PT66 antibody detection). The assay is classed as biochemical.

For a further assay, the target named is T2, HER2 kinase (Homo sapiens, UniProt P04626).
T2 construct: purchased Carna Biosciences 08-016
Kind of assay: HER2 kinase assay (ULight peptide / Eu-PT66 antibody detection). The assay is classed as biochemical.

The test system of another assay is HCC-827 cells. Kind of assay: Inhibition of cell proliferation, CTG method, HCC-827. It counts as cell-based. The conditions noted are these: Homo sapiens, HCC827, 72 hours.

T1 sequence (P00533 25-1210): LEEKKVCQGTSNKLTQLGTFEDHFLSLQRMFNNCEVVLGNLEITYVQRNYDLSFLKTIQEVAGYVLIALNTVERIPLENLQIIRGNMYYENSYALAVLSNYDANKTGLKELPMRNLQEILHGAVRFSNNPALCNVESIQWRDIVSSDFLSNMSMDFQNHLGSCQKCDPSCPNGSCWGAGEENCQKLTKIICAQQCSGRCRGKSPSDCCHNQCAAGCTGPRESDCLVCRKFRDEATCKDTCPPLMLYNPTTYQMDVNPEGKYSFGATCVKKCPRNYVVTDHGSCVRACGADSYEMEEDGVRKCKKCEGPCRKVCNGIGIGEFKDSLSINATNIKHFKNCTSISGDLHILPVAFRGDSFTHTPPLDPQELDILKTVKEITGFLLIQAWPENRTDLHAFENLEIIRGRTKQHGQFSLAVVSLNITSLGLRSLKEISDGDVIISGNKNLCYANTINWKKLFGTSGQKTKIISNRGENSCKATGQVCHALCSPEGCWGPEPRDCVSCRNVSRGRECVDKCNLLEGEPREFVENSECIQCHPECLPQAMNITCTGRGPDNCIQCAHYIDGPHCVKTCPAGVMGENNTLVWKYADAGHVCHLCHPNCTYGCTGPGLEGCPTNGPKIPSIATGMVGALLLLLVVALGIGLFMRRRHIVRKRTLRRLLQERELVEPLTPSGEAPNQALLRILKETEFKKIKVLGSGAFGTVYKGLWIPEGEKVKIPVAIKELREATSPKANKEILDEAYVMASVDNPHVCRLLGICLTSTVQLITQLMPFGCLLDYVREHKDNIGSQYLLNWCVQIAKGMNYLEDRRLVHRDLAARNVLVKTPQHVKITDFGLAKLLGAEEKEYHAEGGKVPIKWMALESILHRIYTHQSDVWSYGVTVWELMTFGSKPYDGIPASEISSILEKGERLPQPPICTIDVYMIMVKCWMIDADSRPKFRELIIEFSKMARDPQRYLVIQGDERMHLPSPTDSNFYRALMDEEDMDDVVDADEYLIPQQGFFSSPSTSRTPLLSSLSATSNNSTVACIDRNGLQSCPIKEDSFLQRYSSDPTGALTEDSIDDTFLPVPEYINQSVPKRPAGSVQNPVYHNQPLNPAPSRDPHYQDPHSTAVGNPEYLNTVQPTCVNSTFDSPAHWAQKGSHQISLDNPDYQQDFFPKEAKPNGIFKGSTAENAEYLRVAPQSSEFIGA
T2 sequence (P04626 23-1255): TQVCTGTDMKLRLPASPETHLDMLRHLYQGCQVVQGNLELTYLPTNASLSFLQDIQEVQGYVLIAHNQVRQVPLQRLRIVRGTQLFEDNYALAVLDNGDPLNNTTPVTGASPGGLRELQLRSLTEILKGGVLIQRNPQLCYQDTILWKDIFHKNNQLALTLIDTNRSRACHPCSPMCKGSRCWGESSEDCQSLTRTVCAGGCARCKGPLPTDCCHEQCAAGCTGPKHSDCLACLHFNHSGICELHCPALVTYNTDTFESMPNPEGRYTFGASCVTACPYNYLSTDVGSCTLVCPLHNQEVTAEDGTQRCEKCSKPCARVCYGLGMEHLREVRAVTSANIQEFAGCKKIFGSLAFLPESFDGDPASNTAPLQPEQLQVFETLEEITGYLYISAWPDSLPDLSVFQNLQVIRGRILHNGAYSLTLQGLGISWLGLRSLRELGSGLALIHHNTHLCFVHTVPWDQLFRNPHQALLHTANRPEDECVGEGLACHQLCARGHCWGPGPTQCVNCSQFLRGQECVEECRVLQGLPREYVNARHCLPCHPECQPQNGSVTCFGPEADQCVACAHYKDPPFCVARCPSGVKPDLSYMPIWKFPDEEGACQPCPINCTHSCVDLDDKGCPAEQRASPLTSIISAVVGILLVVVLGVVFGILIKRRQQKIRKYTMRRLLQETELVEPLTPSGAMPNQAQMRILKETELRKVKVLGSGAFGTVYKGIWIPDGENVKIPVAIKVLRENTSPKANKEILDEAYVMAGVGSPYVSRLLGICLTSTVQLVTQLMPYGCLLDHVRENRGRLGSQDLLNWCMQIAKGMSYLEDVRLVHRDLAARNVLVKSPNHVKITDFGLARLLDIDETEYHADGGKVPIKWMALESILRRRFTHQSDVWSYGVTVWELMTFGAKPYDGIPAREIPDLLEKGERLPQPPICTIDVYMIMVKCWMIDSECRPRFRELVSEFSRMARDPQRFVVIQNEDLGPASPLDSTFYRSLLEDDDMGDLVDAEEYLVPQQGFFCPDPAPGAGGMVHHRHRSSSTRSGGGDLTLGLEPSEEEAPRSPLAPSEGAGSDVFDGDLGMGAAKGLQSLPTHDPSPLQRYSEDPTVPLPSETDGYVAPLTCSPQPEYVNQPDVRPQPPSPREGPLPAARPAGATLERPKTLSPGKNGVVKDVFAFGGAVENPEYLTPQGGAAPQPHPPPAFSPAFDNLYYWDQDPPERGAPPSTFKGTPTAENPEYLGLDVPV

Consider `COc1c(NC(=O)/C=C/CN(C)C)ccc2ncnc(Nc3cccc(Cl)c3F)c12` [Example 1, (E)-N-(4-((3-chloro-2-fluorophenyl)amino)-5-methoxyquinazolin-6-yl)-4-(dimethylamino)but-2-enamide], for which the concentration for half-maximal inhibition (IC50) against EGFR^WT kinase is at most 1 nM; at HER2 kinase, 100 to 1000 nM; in the assay with HCC-827 cells, at most 5 nM.

One may read the IC50 as the concentration at which inhibition is half-maximal. A higher IC50 goes with weaker potency in that assay.
